The results in this text go back to ChEMBL document CHEMBL1629669, “Two clinical strains of Klebsiella pneumoniae carrying plasmid-borne blaIMP-4, blaSHV-12, and armA isolated at a Pediatric Center in Shanghai, China” (2009).

Type in all cases: functional
The subject of assay [1] is Klebsiella pneumoniae. The experiment in a line: Antimicrobial activity against multidrug resistant Klebsiella pneumoniae isolate KpSCMC1 harboring int1, bla IMP-4, bla SHV-12, armA and sul1 gene isolated from patient with pulmonary infection by Etest method.
The subject of assay [2] is Klebsiella pneumoniae. The experiment in a line: Antimicrobial activity against multidrug resistant Klebsiella pneumoniae isolate KpSCMC2 harboring int1, bla IMP-4, bla SHV-12, armA and sul1 gene isolated from patient with pulmonary infection by Etest method.
For assay [3], the system named is Klebsiella pneumoniae. The experiment in a line: Antimicrobial activity against multidrug resistant Klebsiella pneumoniae isolate KpSCMC2 harboring int1, bla IMP-4, bla SHV-12, armA and sul1 gene isolated from patient with pulmonary infection by disk diffusion method. In general terms: A growth-free zone around the sample is the usual read-out of agar diffusion tests.

Assay [4] concerns Klebsiella pneumoniae. The experiment in a line: Antimicrobial activity against multidrug resistant Klebsiella pneumoniae isolate KpSCMC1 harboring int1, bla IMP-4, bla SHV-12, armA and sul1 gene isolated from patient with pulmonary infection by disk diffusion method.
Assay [5] deals with Klebsiella pneumoniae. The assay can be described thus: Antimicrobial activity against carbapenem susceptible Klebsiella pneumoniae isolate KpSCMC2c harboring bla SHV-12 gene isolated from patient with pulmonary infection by Etest method.
Assay [6] has as its system Klebsiella pneumoniae. The assay can be described thus: Antimicrobial activity against carbapenem susceptible Klebsiella pneumoniae isolate KpSCMC2c harboring bla SHV-12 gene isolated from patient with pulmonary infection by disk diffusion method.

≈ marks a conversion by molar mass, not a printed value.

Consider `C[C@@H](O)[C@H]1C(=O)N2C(C(=O)O)=C(S[C@@H]3CN[C@H](C(=O)N(C)C)C3)[C@H](C)[C@H]12` [MEROPENEM], for which the figures for the MIC with Klebsiella pneumoniae [1], with Klebsiella pneumoniae [2] and with Klebsiella pneumoniae [5] were 8 µg/mL (≈ 20.9 µM), 4 µg/mL (≈ 10.4 µM) and 0.25 µg/mL (≈ 0.652 µM), respectively. Moreover, the “inhibition zone (IZ)” value with Klebsiella pneumoniae [3] is 13 mm; in the assay on Klebsiella pneumoniae [4] it was 14 mm; in the assay with Klebsiella pneumoniae [6], 27 mm.
On to `C[C@@H](O)[C@H]1C(=O)N2C(C(=O)O)=C(SCCNC=N)C[C@H]12` [IMIPENEM ANHYDROUS], for which the results for the MIC against Klebsiella pneumoniae [1], in the assay on Klebsiella pneumoniae [2] and with Klebsiella pneumoniae [5] were 3 µg/mL (≈ 10 µM), 2 µg/mL (≈ 6.68 µM) and 0.064 µg/mL (≈ 0.214 µM), respectively. In addition, the results for the “inhibition zone (IZ)” value with Klebsiella pneumoniae [3], in the assay with Klebsiella pneumoniae [4] and in the assay with Klebsiella pneumoniae [6] were 20 mm, 21 mm and 26 mm, respectively.

Usually MIC stands for the lowest concentration that inhibits growth of the organism. A lower MIC goes with greater potency.
